# Data as given in patent US20020176820A1, “Functional expression of, and assay for, functional cellular receptors in vivo” (The Trustees of Columbia University, priority 1997, published 2002).
# “Also recorded” adds a separate entry of the source.
# Tests used:
# Type in all cases: cell-based
# rat I7 odorant receptor [1] = target: T1, rat I7 odorant receptor (Rattus norvegicus, UniProt P23270); assay: Electro-olfactogram (EOG) recording from AdexCAG-I7-IRES-GFP infected rat olfactory epithelium; settings: for change of EOG odorant response in I7 virus infected vs uninfected animals: responses normalized to amyl acetate, panel of 74 odorants
# T1 construct: expressed in transfected cells; host or cells: rat (Sprague-Dawley) olfactory sensory neurons infected in vivo with recombinant adenovirus AdexCAG-I7-IRES-GFP
# T1 sequence (P23270 1-327): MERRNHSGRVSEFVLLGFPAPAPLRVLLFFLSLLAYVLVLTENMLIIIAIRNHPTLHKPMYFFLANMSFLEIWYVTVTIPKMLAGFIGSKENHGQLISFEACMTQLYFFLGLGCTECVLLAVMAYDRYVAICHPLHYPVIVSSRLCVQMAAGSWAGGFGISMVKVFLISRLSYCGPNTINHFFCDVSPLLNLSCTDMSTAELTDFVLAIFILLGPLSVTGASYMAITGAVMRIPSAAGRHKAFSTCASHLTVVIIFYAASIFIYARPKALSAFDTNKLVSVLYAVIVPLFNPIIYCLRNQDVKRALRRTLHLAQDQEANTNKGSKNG
# Procedure: Rats (Sprague-Dawley) of various ages and both sexes were used for these experiments. Under anesthesia (ketamine, 90 mg/kg and xylazine, 10 mg/kg, i.p.), 30 μl of rat Ringer solution (in mM, 135, NaCl; 5, I(Cl; 1, CaCl2; 4, MgCl2; 10, HEPES; pH 7.4) containing the AdexCAG-I7-IRES-GFP at a titer of 3×10^9 pfu/ml, and 0.3% fast green dye was slowly injected through the nostril into the right side of the nasal cavity with a short length of thin plastic tubing. The solution was allowed to remain in the nasal cavity. After recovery, the animals were maintained at room temperature with no other treatment until sacrificed.
# (§1) The animal was overdosed with anesthetics (Ketamine and xylazine) and decapitated. The head was cut open sagittally and the septum was removed to expose the medial surface of the olfactory turbinates (44 this reference is hereby incorporated by reference in its entirety). The right half of the head was mounted in a wax dish filled with rat Ringer. The medial surface of turbinates was face up and exposed to the air. A continuous stream of humidified clean air was gently blown on the turbinates through tubing to prevent tissue from drying. The opening of the tubing was 8 mm in diameter and placed approximately 10 mm from the turbinate surface.
# Odorant solutions were prepared by diluting a 0.5 M stock in DMSO with water. All odorant chemicals were purchased from Aldrich, except Lyral and Lilial which were the kind gift of IFF and Harmon & Reimer Inc. Three milliliters of the odorant solution were placed in a 10 ml glass test tube and capped with a silicon stopper. The concentration of volatile odorant in the 7 cc airspace was allowed to equilibrate for more than 1 hour. All solutions were used within 8 hours. Two 18 gauge needles provided the input and output ports for the odorant containing vapor above the solution. For stimulation a 100 ms pulse of the odorant vapor at 9 psi was injected into the continuous stream of humidified air. The pulse was controlled by a Picospritzer solenoid controlled valve (General Valve). Amyl acetate was used as the reference odorant to control for the variability in responses between animals and during long recording sessions, and was delivered on every sixth trial of odorant stimulation. Three tubes of amyl acetate at 10^−3 M liquid concentration were used alternately in each experiment. The odorant stimulus pathway was cleaned by air between each stimulus presentation. The minimum interval between two adjacent stimuli was 1 minute.
# The EOG recording electrode was an Ag/AgCl wire in a capillary glass pipette filled with rat Ringer solution containing 0.6% agarose. The electrode resistance was between 0.5 and 1 MΩ. The recording pipette was placed on the surface of the olfactory epithelium and connected to a differential amplifier (DP-301, Warner Instrument). Placement of the electrode was determined by visualizing GFP fluorescence with a modified stereomicroscope (Kramer Scientific). The EOG potential was observed on a chart recorder, recorded with a DAT tape recorder, and later transferred to computer. For most experiments two electrodes and two amplifiers were used to record EOGs from two different sites of epithelium simultaneously. All experiments were performed at room temperature (22-25° C.).
# Odorants were prepared and applied in the following manner. Three milliliters of each odorant solution at a particular concentration were placed in a 10 ml test tube stoppered with a silicone cap, and left for one hour to allow the concentration of volatile odorant in the 7 cc airspace above the solution to equilibrate. Most of the odorants were prepared at a liquid concentration of 10^−2 M to 10^−3 M depending on their relative volatilities. Concentrations of stimulus produced at the olfactory epithelium could not be known, but the system reliably delivered the same amount of stimulus on each trial as there was little variability between responses to successive pulses of the same odorant. […]
# rat olfactory epithelium = assay: EOG recording from control rat olfactory epithelium (uninfected or infected with GFP-only adenovirus)
# Source text: as §1
# Odorant solutions were prepared by diluting a 0.5 M stock in DMSO with water. All odorant chemicals were purchased from Aldrich, except Lyral and Lilial which were the kind gift of IFF and Harmon & Reimer Inc. Three milliliters of the odorant solution were placed in a 10 ml glass test tube and capped with a silicon stopper. […]
# The EOG recording electrode was an Ag/AgCl wire in a capillary glass pipette filled with rat Ringer solution containing 0.6% agarose. […] Placement of the electrode was determined by visualizing GFP fluorescence with a modified stereomicroscope (Kramer Scientific). The EOG potential was observed on a chart recorder, recorded with a DAT tape recorder, and later transferred to computer. […]
# rat I7 odorant receptor [2] = target: T1, rat I7 odorant receptor; assay: Whole-cell patch clamp recording from isolated GFP positive olfactory neurons infected by AdexCAG-I7-IRES-GFP
# Procedure: Whole-cell patch clamp recording was performed on isolated cells with detectable fluorescence (FITC filter). Cell dissociation techniques for olfactory epithelium are described in detail elsewhere (45 this reference is hereby incorporated by reference in its entirety); for these experiments we included only papain treatment and mechanical disruption. Recordings were made with the Axopatch 1D amplifier. […] Data were acquired with the PULSE software (HEKA). Odorants were applied by a constant stream perfusion device (SF77, Warner Instruments) or by pressure pulse. The extracellular solution was the rat Ringer described above. All cells were tested to confirm that they had the normal voltage gated currents before investigating their odorant responses.
# The holding potential was −60 mV. The currents varied from 60-250 pA in response to a 50 msec pulse of octanal at approximately 10−4 M, values that are within the range previously reported for rat olfactory neurons (28). […] The odorant induced current reversed around 0 mV.
structure (smiles),measurement,setting,value
CCCCCCCCCC=O [decyl aldehyde],change of EOG odorant response in I7 virus infected vs uninfected animals,rat I7 odorant receptor [1],increased odorant response
CCCCCCC=O [heptaldehyde],change of EOG odorant response in I7 virus infected vs uninfected animals,rat I7 odorant receptor [1],increased odorant response
CCCCCC=O [hexaldehyde],change of EOG odorant response in I7 virus infected vs uninfected animals,rat I7 odorant receptor [1],not
CCCCCCCCC=O [nonyl aldehyde],change of EOG odorant response in I7 virus infected vs uninfected animals,rat I7 odorant receptor [1],increased odorant response
CCCCCCCC=O [octyl aldehyde],difference in response magnitude (octyl aldehyde compared to amyl acetate) in infected versus control epithelia,"rat I7 odorant receptor [1]; dose-response at various concentrations, FIG. 5c",≤ 7 fold
same,relative EOG amplitude after moving electrode from high fluorescence to regions with little or no GFP expression,rat I7 odorant receptor [1]; infected animals,significantly reduced
same,response ratio of octyl aldehyde to amyl acetate,"rat I7 odorant receptor [1]; infected animals, odorant concentration in solution 5×10^−5 M",7 times
same,EOG response in animals with lower infection rates,rat I7 odorant receptor [1]; infection judged by extent of GFP fluorescence,comparably smaller
same,average EOG response in infected vs. uninfected animals,"rat I7 odorant receptor [1]; normalized to amyl acetate, comparatively high odorant concentrations near saturation",1.7 times
same,change of EOG odorant response in I7 virus infected vs uninfected animals,rat I7 odorant receptor [1],dramatically greater; also recorded: increased odorant response
same,EOG response in animals infected with adenovirus containing only the GFP gene,"rat olfactory epithelium; GFP-only adenovirus, same CAG promoter, compared with uninfected animals",not different from uninfected animals
same,response ratio of octyl aldehyde to amyl acetate,"rat olfactory epithelium; normal (uninfected) animals, 5×10^−5 M in solution",1
same,reversal potential of odorant induced current,rat I7 odorant receptor [2],around 0 mV
same,latency of odorant induced current,rat I7 odorant receptor [2]; 50 msec pulse at approximately 10−4 M,100 to 250 ms
same,odorant induced current,"rat I7 odorant receptor [2]; 50 msec pulse at approximately 10−4 M, holding potential −60 mV",60-250 pA
same,cells with odorant induced current,rat I7 odorant receptor [2]; isolated GFP positive neurons,5 of 5
CCCCC/C=C/C=O [trans-2-octenal],change of EOG odorant response in I7 virus infected vs uninfected animals,rat I7 odorant receptor [1],failed to elicit responses larger than in normal animals
CCCCCCCCCCC=O [undecylic aldehyde],change of EOG odorant response in I7 virus infected vs uninfected animals,rat I7 odorant receptor [1],not
